This assay deals with Protein cereblon (Homo sapiens, UniProt Q96SW2). The assay can be described thus: Cereblon Binding Assay. The procedure: The binding to cereblon (CRBN) was determined using the Cereblon Binding Kit (Cisbio, #64BDCRBNPEG) following the manufacturer's instruction. Briefly, serially diluted compounds were incubated with GST-tagged wild-type human CRBN protein, XL665-labelled Thalidomide and Europium Cryptate labelled GST antibody at room temperature for about 3 hours. Time Resolved Fluorescence Resonance Energy Transfer (TR-FRET) measurements were acquired on a CALRIOstar plate reader with MARS data analysis software (BMG Labtech), with the following settings: 665/10 nm and 620/10 nm emission, 60 μs delay and 400 μs integration. The TR-FRET ratio was taken as the 665/620 nm intensity ratio.
Protein cereblon, sequence (Q96SW2 whole entry): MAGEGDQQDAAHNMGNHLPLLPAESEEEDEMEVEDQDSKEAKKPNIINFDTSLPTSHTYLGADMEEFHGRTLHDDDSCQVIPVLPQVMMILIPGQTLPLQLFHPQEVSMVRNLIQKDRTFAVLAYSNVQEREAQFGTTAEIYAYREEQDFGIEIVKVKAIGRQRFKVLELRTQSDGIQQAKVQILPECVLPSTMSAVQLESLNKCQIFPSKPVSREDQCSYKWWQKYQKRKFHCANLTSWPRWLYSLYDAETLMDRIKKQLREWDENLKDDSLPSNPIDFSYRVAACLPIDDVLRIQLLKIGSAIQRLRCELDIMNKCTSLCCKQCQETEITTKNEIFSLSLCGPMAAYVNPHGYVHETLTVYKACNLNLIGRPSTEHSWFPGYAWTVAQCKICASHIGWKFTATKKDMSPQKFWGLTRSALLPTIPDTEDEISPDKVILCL

SMILES strings stand for the structures.

Turning to `O=C1CCC(N2Cc3c(ccc4c3O[C@@H](COCc3ccccc3)CO4)C2=O)C(=O)N1` (some centres not stated) [US20240059711, Compound B9], the IC50 (commonly the concentration at which inhibition is half-maximal) was 580 nM.

Compound `O=C1CCC(N2Cc3c(ccc4c3O[C@H](COCc3ccccc3)CO4)C2=O)C(=O)N1` (some centres not stated) [US20240059711, Compound B10] showed an IC50 of 800 nM.
